US9221756B2, “Pyrrole derivatives” (priority 2011, dated 2015)

These molecules were tested against pneumolysin (Streptococcus pneumoniae serotype 2, UniProt Q04IN8) (assay: Inhibition of the haemolytic activity of pneumolysin (sheep erythrocytes)). Conditions: IC50, inhibition of pneumolysin-induced haemolysis of sheep erythrocytes; class symbols of Table 1.
Assay type: cell-based

Sequence of pneumolysin (Q04IN8 whole entry): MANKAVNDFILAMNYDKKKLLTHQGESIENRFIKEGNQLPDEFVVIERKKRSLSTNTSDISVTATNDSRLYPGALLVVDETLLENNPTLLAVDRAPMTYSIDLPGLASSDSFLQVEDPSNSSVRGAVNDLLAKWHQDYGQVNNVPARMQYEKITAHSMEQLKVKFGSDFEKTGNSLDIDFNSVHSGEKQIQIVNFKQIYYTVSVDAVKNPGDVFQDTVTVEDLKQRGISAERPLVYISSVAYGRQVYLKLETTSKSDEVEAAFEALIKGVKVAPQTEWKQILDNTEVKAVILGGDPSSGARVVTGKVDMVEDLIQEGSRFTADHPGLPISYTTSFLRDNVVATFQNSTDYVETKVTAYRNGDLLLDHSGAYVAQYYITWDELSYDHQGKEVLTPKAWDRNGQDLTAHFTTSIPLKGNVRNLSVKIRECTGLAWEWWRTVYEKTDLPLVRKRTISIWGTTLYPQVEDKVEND

| SMILES | IC50 [µM] |
| --- | --- |
| CCOC(=O)c1c(O)c(O)c(C(=O)N(CC)CC)n1-c1ccc(OC)cc1 [UL1-041, ethyl 5-(diethylcarbamoyl)-3,4-dihydroxy-1-(4-methoxyphenyl)-1H-pyrrole-2-carboxylate] | < 10 |
| CCOC(=O)c1c(O)c(O)c(C(=O)N(C)C)n1-c1ccc(I)cc1 [UL1-042, ethyl 5-(dimethylcarbamoyl)-3,4-dihydroxy-1-(4-iodophenyl)-1H-pyrrole-2-carboxylate] | < 10 |
| CCOC(=O)c1c(O)c(O)c(C(=O)N(C)C)n1-c1ccc(OC)c(I)c1 [UL1-043, ethyl 5-(dimethylcarbamoyl)-3,4-dihydroxy-1-(3-iodo-4-methoxyphenyl)-1H-pyrrole-2-carboxylate] | < 10 |
| CCOc1ccc(-n2c(C(=O)N(CC)CC)c(OCc3ccccc3)c(OCc3ccccc3)c2C(=O)N(CC)CC)cc1 [UL1-045, 3,4-bis(benzyloxy)-1-(4-ethoxyphenyl)-N^2,N^2,N^5,N^5-tetraethyl-1H-pyrrole-2,5-dicarboxamide] | < 10 |
| CCN(CC)C(=O)c1c(OCc2ccccc2)c(OCc2ccccc2)c(C(=O)N(CC)CC)n1-c1ccc(OC)cc1 [UL1-046, 3,4-bis(benzyloxy)-N^2,N^2,N^5,N^5-tetraethyl-1-(4-methoxyphenyl)-1H-pyrrole-2,5-dicarboxamide] | < 10 |
| COc1ccc(-n2c(C(=O)N(C)C)c(OCc3ccccc3)c(OCc3ccccc3)c2C(=O)N(C)C)cc1 [UL1-047, 3,4-bis(benzyloxy)-1-(4-methoxyphenyl)-N^2,N^2,N^5,N^5-tetramethyl-1H-pyrrole-2,5-dicarboxamide] | 10 to 20 |
| COc1ccc(-n2c(C(=O)N3CCN(C(=O)OC(C)(C)C)CC3)c(OCc3ccccc3)c(OCc3ccccc3)c2C(=O)N2CCN(C(=O)OC(C)(C)C)CC2)cc1 [UL1-048, di-tert-butyl 4,4′-(3,4-bis(benzyloxy)-1-(4-methoxyphenyl)-1H-pyrrole-2,5-dicarbonyl)bis(piperazine-1-carboxylate)] | < 10 |
| COc1ccc(-n2c(C(=O)N3CCCCC3)c(OCc3ccccc3)c(OCc3ccccc3)c2C(=O)N2CCCCC2)cc1 [UL1-049, (3,4-bis(benzyloxy)-1-(4-methoxyphenyl)-1H-pyrrole-2,5-diyl)bis(piperidin-1-ylmethanone)] | < 10 |
| COc1ccccc1-n1c(C(=O)N(C)C)c(OCc2ccccc2)c(OCc2ccccc2)c1C(=O)N(C)C [UL1-050, 3,4-bis(benzyloxy)-1-(2-methoxyphenyl)-N^2,N^2,N^5,N^5-tetramethyl-1H-pyrrole-2,5-dicarboxamide] | 10 to 20 |
| COc1ccccc1-n1c(C(=O)N2CCOCC2)c(OCc2ccccc2)c(OCc2ccccc2)c1C(=O)N1CCOCC1 [UL1-051, (3,4-bis(benzyloxy)-1-(2-methoxyphenyl)-1H-pyrrole-2,5-diyl)bis(morpholinomethanone)] | 20 to 60 |
| CCOc1ccc(-n2c(C(=O)N(C)C)c(OCc3ccccc3)c(OCc3ccccc3)c2C(=O)N(C)C)cc1 [UL1-052, 3,4-bis(benzyloxy)-1-(4-ethoxyphenyl)-N^2,N^2,N^5,N^5-tetramethyl-1H-pyrrole-2,5-dicarboxamide] | < 10 |
| CCOc1ccc(-n2c(C(=O)N3CCOCC3)c(OCc3ccccc3)c(OCc3ccccc3)c2C(=O)N2CCOCC2)cc1 [UL1-053, (3,4-bis(benzyloxy)-1-(4-ethoxyphenyl)-1H-pyrrole-2,5-diyl)bis(morpholinomethanone)] | 10 to 20 |
| CN(C)C(=O)c1c(OCc2ccccc2)c(OCc2ccccc2)c(C(=O)N(C)C)n1-c1ccc(C(F)(F)F)cc1 [UL1-054, 3,4-bis(benzyloxy)-N^2,N^2,N^5,N^5-tetramethyl-1-(4-(trifluoromethyl)phenyl)-1H-pyrrole-2,5-dicarboxamide] | 10 to 20 |
| CCNC(=O)c1c(OCc2ccccc2)c(OCc2ccccc2)c(C(=O)N(C)C)n1-c1ccc(OC)cc1 [UL1-055, 3,4-bis(benzyloxy)-N^2-ethyl-1-(4-methoxyphenyl)-N^5,N^5-dimethyl-1H-pyrrole-2,5-dicarboxamide] | 10 to 20 |
| COc1ccc(-n2c(C(=O)N(C)C)c(OCc3ccccc3)c(OCc3ccccc3)c2C(=O)N2CCN(C)CC2)cc1 [UL1-056, 3,4-bis(benzyloxy)-1-(4-methoxyphenyl)-N,N-dimethyl-5-(4-methylpiperazine-1-carbonyl)-1H-pyrrole-2-carboxamide] | 10 to 20 |
| COc1ccc(-n2c(C(=O)N(C)C)c(OCc3ccccc3)c(OCc3ccccc3)c2C(=O)N2CCCCC2)cc1 [UL1-057, 3,4-bis(benzyloxy)-1-(4-methoxyphenyl)-N,N-dimethyl-5-(piperidine-1-carbonyl)-1H-pyrrole-2-carboxamide] | < 10 |
| COc1ccc(-n2c(C(=O)N(C)C)c(OCc3ccccc3)c(OCc3ccccc3)c2C(=O)N2CCOCC2)cc1 [UL1-058, 3,4-bis(benzyloxy)-1-(4-methoxyphenyl)-N,N-dimethyl-5-(morpholine-4-carbonyl)-1H-pyrrole-2-carboxamide] | 20 to 60 |
| COc1ccc(-n2c(C(=O)N3CCN(C(C)=O)CC3)c(OCc3ccccc3)c(OCc3ccccc3)c2C(=O)N2CCN(C(C)=O)CC2)cc1 [UL1-059, 1,1′-(4,4′-(3,4-bis(benzyloxy)-1-(4-methoxyphenyl)-1H-pyrrole-2,5-dicarbonyl)bis(piperazine-4,1-diyl))diethanone] | 20 to 60 |
| CCOC(=O)c1c(OCc2ccccc2)c(OCc2ccccc2)c(C#N)n1-c1ccc(F)cc1 [UL1-060, ethyl 3,4-bis(benzyloxy)-5-cyano-1-(4-fluorophenyl)-1H-pyrrole-2-carboxylate] | 20 to 60 |

| SMILES | IC50 [µM] |
| --- | --- |
| CN(C)C(=O)c1c(OCc2ccccc2)c(OCc2ccccc2)c(C#N)n1-c1ccc(F)cc1 [UL1-061, 3,4-bis(benzyloxy)-5-cyano-1-(4-fluorophenyl)-N,N-dimethyl-1H-pyrrole-2-carboxamide] | < 10 |
| CCOC(=O)c1c(OCc2ccccc2)c(OCc2ccccc2)c(C(=O)N(C)C)n1-c1ccc(I)cc1 [UL1-062, ethyl 3,4-bis(benzyloxy)-5-(dimethylcarbamoyl)-1-(4-iodophenyl)-1H-pyrrole-2-carboxylate] | < 10 |
| COc1ccc(-n2c(C(N)=O)c(OCc3ccccc3)c(OCc3ccccc3)c2C(N)=O)cc1 [UL1-072, 3,4-bis(benzyloxy)-1-(4-methoxyphenyl)-1H-pyrrole-2,5-dicarboxamide] | 20 to 60 |
| COc1ccc(-n2c(C(N)=O)c(O)c(O)c2C(N)=O)cc1 [UL1-073, 3,4-dihydroxy-1-(4-methoxyphenyl)-1H-pyrrole-2,5-dicarboxamide] | < 10 |
| CCNC(=O)c1c(OCc2ccccc2)c(OCc2ccccc2)c(C(=O)NCC)n1-c1ccc(OC)cc1 [UL1-074, 3,4-bis(benzyloxy)-N2,N5-diethyl-1-(4-methoxyphenyl)-1H-pyrrole-2,5-dicarboxamide] | 20 to 60 |
| NC(=O)c1c(OCc2ccccc2)c(OCc2ccccc2)c(C(N)=O)n1-c1ccc(F)cc1 [UL1-075, 3,4-bis(benzyloxy)-1-(4-fluorophenyl)-1H-pyrrole-2,5-dicarboxamide] | 20 to 60 |
| NC(=O)c1c(O)c(O)c(C(N)=O)n1-c1ccc(F)cc1 [UL1-076, 1-(4-fluorophenyl)-3,4-dihydroxy-1H-pyrrole-2,5-dicarboxamide] | 10 to 20 |
| CCOc1ccc(-n2c(C(N)=O)c(O)c(O)c2C(N)=O)cc1 [UL1-077, 1-(4-ethoxyphenyl)-3,4-dihydroxy-1H-pyrrole-2,5-dicarboxamide] | 20 to 60 |
| CCNC(=O)c1c(O)c(O)c(C(=O)NCC)n1-c1ccc(OCC)cc1 [UL1-078, 1-(4-ethoxyphenyl)-N2,N5-diethyl-3,4-dihydroxy-1H-pyrrole-2,5-dicarboxamide] | < 10 |
| CCOC(=O)c1c(OCc2ccccc2)c(OCc2ccccc2)c(C(N)=O)n1-c1ccc(OC)cc1 [UL1-079, ethyl 3,4-bis(benzyloxy)-5-carbamoyl-1-(4-methoxyphenyl)-1H-pyrrole-2-carboxylate] | < 10 |
| CCOC(=O)c1c(O)c(O)c(C(N)=O)n1-c1ccc(OC)cc1 [UL1-080, ethyl 5-carbamoyl-3,4-dihydroxy-1-(4-methoxyphenyl)-1H-pyrrole-2-carboxylate] | < 10 |
| CCOC(=O)c1c(OCc2ccccc2)c(OCc2ccccc2)c(-c2ccccc2OC)n1-c1ccc(OC)cc1 [UL1-081, ethyl 3,4-bis(benzyloxy)-5-(2-methoxyphenyl)-1-(4-methoxyphenyl)-1H-pyrrole-2-carboxylate] | 20 to 60 |
| CCOC(=O)c1c(OCc2ccccc2)c(OCc2ccccc2)c(-c2ccccn2)n1-c1ccc(OC)cc1 [UL1-082, ethyl 3,4-bis(benzyloxy)-1-(4-methoxyphenyl)-5-(pyridin-2-yl)-1H-pyrrole-2-carboxylate] | 10 to 20 |
| CCOC(=O)c1c(O)c(O)c(-c2ccccn2)n1-c1ccc(OC)cc1 [UL1-083, ethyl 3,4-dihydroxy-1-(4-methoxyphenyl)-5-(pyridin-2-yl)-1H-pyrrole-2-carboxylate] | < 10 |
| CCOC(=O)c1c(OCc2ccccc2)c(OCc2ccccc2)c(-c2ccncc2)n1-c1ccc(OC)cc1 [UL1-084, ethyl 3,4-bis(benzyloxy)-1-(4-methoxyphenyl)-5-(pyridin-4-yl)-1H-pyrrole-2-carboxylate] | < 10 |
| CCOC(=O)c1c(OCc2ccccc2)c(OCc2ccccc2)c(-c2cccnc2)n1-c1ccc(OC)cc1 [UL1-085, ethyl 3,4-bis(benzyloxy)-1-(4-methoxyphenyl)-5-(pyridin-3-yl)-1H-pyrrole-2-carboxylate] | < 10 |
| CCOC(=O)c1c(O)c(O)c(-c2nc(CC)cs2)n1-c1ccc(OC)cc1 [UL1-086, ethyl 5-(4-ethylthiazol-2-yl)-3,4-dihydroxy-1-(4-methoxyphenyl)-1H-pyrrole-2-carboxylate] | < 10 |
| CCOC(=O)c1c(OCc2ccccc2)c(OCc2ccccc2)c(-c2nnc(C)o2)n1-c1ccc(OC)cc1 [UL1-087, ethyl 3,4-bis(benzyloxy)-1-(4-methoxyphenyl)-5-(5-methyl-1,3,4-oxadiazol-2-yl)-1H-pyrrole-2-carboxylate] | < 10 |
| CCOC(=O)c1c(OCc2ccccc2)c(OCc2ccccc2)c(-c2nnc(CC)o2)n1-c1ccc(OC)cc1 [UL1-088, ethyl 3,4-bis(benzyloxy)-5-(5-ethyl-1,3,4-oxadiazol-2-yl)-1-(4-methoxyphenyl)-1H-pyrrole-2-carboxylate] | 10 to 20 |

Same assay, conditions: IC50, inhibition of pneumolysin-induced haemolysis of sheep erythrocytes; specific values

| SMILES | IC50 [µM] |
| --- | --- |
| COc1ccc(-n2c(C(=O)N3CCCCC3)c(OCc3ccccc3)c(OCc3ccccc3)c2C(=O)N2CCCCC2)cc1 [UL1-049, (3,4-bis(benzyloxy)-1-(4-methoxyphenyl)-1H-pyrrole-2,5-diyl)bis(piperidin-1-ylmethanone)] | 0.479 |
